Like-named read-outs stand apart in the source and are kept apart here. Marks after values point to notes of the source that are not given here.
Tests used:
[1] = Multiple ascending dose (MAD) study in healthy volunteers: safety (TEAEs); type: in vivo, human; conditions: blinded; for Number of SAEs / Number of TEAEs / Number of TEAEs grade ≥ 3 / Number of TEAEs leading to study drug discontinuation / Number of drug-related TEAEs: HV MAD, n=10 incl. placebo
Description: To evaluate the safety and tolerability of multiple ascending doses (MAD) of Compound I, seven healthy volunteers aged 18 to 55 years old were administered a loading dose of 300 mg of Compound I for 3 days, followed by maintenance doses of 15 mg, 25 mg, 50 mg, or 75 mg of Compound I for 14 days. Three healthy volunteers aged 18 to 55 years old were administered placebo for 14 days. Primary endpoints were safety and tolerability; key secondary endpoints included PK and effect on electrocardiogram (ECG) parameters.
(§1) Another study was initiated in healthy volunteer aged 18-55 years old to evaluate the safety and tolerability of multiple ascending doses of Compound I. Four cohorts of 10 subjects each (n=7 Compound I, n=3 placebo) were evaluated in a sequential double-blind manner. To reach steady state levels each subject received a loading dose regimen for 3 or 4 days followed by once daily medication for up to 14 days. Primary endpoints were safety and tolerability; key secondary endpoints included PK and effect on electrocardiogram (ECG) parameters. Table 7 below provides an overview of the doses of Compound I or placebo that were used in each cohort.
Endpoints were safety (clinical laboratory test results, adverse events, electrocardiogram […] parameters, physical examination findings) and tolerability, and PK.

[2] = MAD study in healthy volunteers: whole blood and plasma PK; type: in vivo, human; conditions: for AUC(0-t): read-out: AUC0-24; for concentration at 14 day: read-out: Cmin
Description: as §1
(§2) Preliminary whole blood PK parameters (geometric mean and % CV) and hemoglobin occupancy in healthy volunteers of the 15 mg, 25 mg, 50 mg, and 75 mg MAD cohorts are summarized in Table 10.

[3] = molecular target: T1, hemoglobin (Homo sapiens, UniProt P68871+P69905); test: Percent Hb occupancy after repeated administration, healthy volunteers; type: in vivo
T1 construct: divided by the molar concentration of hemoglobin in RBCs; endogenous in cells; host or cells: red blood cells of healthy volunteers (in vivo)
Description: In some embodiments, the therapeutically effective amount is determined by measuring the percent of hemoglobin occupied by the compound, i.e., the percent Hb occupancy. The percent Hb occupancy is a measure of target engagement defined as the percentage of hemoglobin bound by a compound (e.g., Compound I) calculated as the molar concentration of the compound (e.g., Compound I) in RBCs divided by the molar concentration of hemoglobin in RBCs (the mean corpuscular hemoglobin concentration calculated from the hematology panel). The values for concentration of a compound (e.g., Compound I) in RBCs is calculated from the concentrations in whole blood and plasma, and the hematocrit.
as §1, §2

[4] = Single 100 mg dose PK in SCD subjects; type: in vivo, human; conditions: for AUC(0-t) / Cmax / half-life / Tmax: human; for AUC(0-t) / Cmax: 100 mg; for Tmax: median
Description: The PK profile of a single 100 mg dose in whole blood and plasma was evaluated using standard noncompartmental analysis. The preliminary PK parameter estimates of Compound I in whole blood from SCD subjects differed from healthy subjects in terms of elimination t½, AUC, Tmax, and blood to plasma ratio. In brief, the elimination t½ and Tmax were nearly 3× faster or occurred earlier, respectively, in SCD than in healthy subjects, and the blood to plasma ratio was about 30% of the values in healthy subjects (most likely due to the fewer RBCs compared to healthy subjects). For the plasma compartment, the differences between the 2 populations were most notable in terms of elimination t1/2, which again was about 2.5 times faster in SCD.

[5] = SCD cohort safety (TEAEs); type: in vivo, human
Description: After a washout period of at least 56 days (so that elimination PK of Compound I could be assessed), the patients were administered a loading dose of 300 mg per day of Compound I for one day followed by 200 mg per day of Compound I for one day, and then were administered a maintenance dose of 50 mg per day of Compound I for five weeks (“MAD-1 Cohort”). The same patients then received another loading dose of 500 mg per day of Compound I for one day followed by 400 mg per day of Compound I for one day, and then were administered another maintenance dose of 100 mg per day of Compound I for three weeks (“MAD-2 Cohort”). The total treatment period of the MAD-1 Cohort and MAD-2 Cohort was 8 weeks.
Primary endpoints were safety and tolerability. Key secondary endpoints included PK and the relationship between time-matched Compound I concentrations and changes in clinical measures of anemia and hemolysis from baseline.
The majority of treatment emergent adverse events were grade 1 or 2 and unrelated to study drug.
Following the conclusion of the MAD-2 study and a washout period of about 8 months, the selected patients (n=4) were administered a loading dose of 300 mg BID for 4 days, followed thereafter by a maintenance dose of 150 mg QD (MAD-3 Cohort).

[6] = plasma, SCD subjects n=6, single 100 mg, geometric mean
[7] = whole blood, SCD single 100 mg, mean
[8] = whole blood, SCD subjects n=6, single 100 mg, blood, geometric mean
[9] = MAD-3 SCD patients N=4 (300 mg BID x 4 days, then 150 mg QD)
[10] = SCD N=6, single dose and multiple dose portions (Table 13A)
[11] = SCD n=6, single dose, MAD-1 (50 mg qd) and MAD-2 (100 mg qd) (Table 13B)

T1 sequence (P69905 2-142 limits assumed): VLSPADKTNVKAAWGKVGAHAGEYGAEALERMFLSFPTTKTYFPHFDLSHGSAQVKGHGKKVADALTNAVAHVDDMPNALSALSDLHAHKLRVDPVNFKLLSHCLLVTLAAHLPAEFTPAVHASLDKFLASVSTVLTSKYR
T1 sequence (P68871 2-147 limits assumed): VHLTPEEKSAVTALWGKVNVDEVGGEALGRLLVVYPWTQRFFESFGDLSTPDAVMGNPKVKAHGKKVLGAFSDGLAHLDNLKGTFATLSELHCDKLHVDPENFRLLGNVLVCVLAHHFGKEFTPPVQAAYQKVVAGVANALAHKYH

## O=Cc1c(O)cccc1OC[C@@H]1COCCN1C(=O)c1cccnc1CCO [Compound I, (S)-2-hydroxy-6-((4-(2-(2-hydroxyethyl)nicotinoyl)morpholin-3-yl)methoxy)benzaldehyde]
[1]; HV MAD study
  tolerability: well tolerated
[1]; 15 mg maintenance cohort
  Number of SAEs: 0
  Number of TEAEs: 8
  Number of TEAEs grade ≥ 3: 0
  Number of TEAEs leading to study drug discontinuation: 0
[1]; 15 mg maintenance cohort, grade 1 somnolence
  Number of drug-related TEAEs: 1^b
[1]; 25 mg maintenance cohort
  Number of SAEs: 0
  Number of TEAEs: 5
  Number of TEAEs grade ≥ 3: 0
  Number of TEAEs leading to study drug discontinuation: 0
[1]; 25 mg maintenance cohort, vomiting and nausea in 1 participant
  Number of drug-related TEAEs: 2^c
[1]; 50 mg maintenance cohort
  Number of SAEs: 0
  Number of TEAEs: 17
  Number of TEAEs grade ≥ 3: 1
  Number of TEAEs leading to study drug discontinuation: 0
[1]; 50 mg maintenance cohort, headaches and dizziness in 1 participant
  Number of drug-related TEAEs: 2^d
[1]; 75 mg maintenance cohort
  Number of SAEs: 0
  Number of TEAEs: 3
  Number of TEAEs grade ≥ 3: 0
  Number of TEAEs leading to study drug discontinuation: 0
  Number of drug-related TEAEs: 0
[2]; HV MAD Day 14, 75 mg QD maintenance
  B:P ratio (mean AUC0-24 blood:mean AUC0-24 plasma): 140
[2]; human, HV MAD Day 14, 15 mg QD maintenance, whole blood
  AUC(0-t): 2840 µg·h/mL
[2]; human, HV MAD Day 14, 25 mg QD maintenance, whole blood
  concentration at 14 day: 135 µg/mL
[2]; human, HV MAD Day 14, 50 mg QD maintenance, whole blood, median
  Tmax: 3 h
[2]; human, HV MAD Day 14, 50 mg QD maintenance, whole blood
  AUC(0-t): 5140 µg·h/mL
[2]; human, HV MAD Day 14, 75 mg QD maintenance (loading 500/500/500/400 mg), whole blood
  Cmax: 308 µg/mL
[2]; human, HV MAD Day 14, 75 mg QD maintenance, whole blood
  concentration at 14 day: 297 µg/mL
[3]; HV MAD Day 14, 15 mg QD maintenance (loading 200 mg x 3 days)
  receptor occupancy at 15 mg: 16%
[3]; HV MAD Day 14, 25 mg QD maintenance (loading 200 mg x 3 days)
  receptor occupancy at 25 mg: 16.3%
[3]; HV MAD Day 14, 50 mg QD maintenance (loading 500/400/400 mg)
  receptor occupancy at 50 mg: 25.8%
[3]; HV MAD Day 14, 75 mg QD maintenance (loading 500/500/500/400 mg)
  receptor occupancy at 75 mg: 35.2%
[4]; SCD single 100 mg
  B:P ratio (mean AUC0-t blood:mean AUC0-t plasma): 69.3
[4]; SCD subjects n=6, single 100 mg
  B:P ratio AUC0-inf: 69.3
[4]; SCD subjects n=6, single 100 mg, blood, geometric mean
  t½: 235 h
[4]; [6]
  AUC(0-t): 67.2 µg·h/mL
  Cmax: 1.01 µg/mL
[4]; [7]
  AUC(0-t): 4690 µg·h/mL
  Cmax: 16.7 µg/mL
[4]; [8]
  AUC(0-t): 4540 µg·h/mL
  Cmax: 16.2 µg/mL
[4]; SCD single 100 mg, whole blood, mean, read-out: t1/2 (converted)
  half-life: 235 h
[4]; SCD single 100 mg, whole blood
  Tmax: 8 h
[4]; SCD subjects n=6, single 100 mg, plasma, geometric mean, read-out: t½ (converted)
  half-life: 252 h
[4]; SCD subjects n=6, single 100 mg, plasma
  Tmax: 1.5 h
[4]; single 100 mg
  blood to plasma ratio in SCD as share of the values in healthy subjects: about 30%
[4]; single 100 mg, plasma
  elimination t1/2 in plasma, times faster in SCD: about 2.5 times
[4]; single 100 mg, whole blood
  Tmax in whole blood, times earlier in SCD than in healthy subjects: ~3 ×
  elimination t½ in whole blood, times faster in SCD than in healthy subjects: ~3 ×
[5]; [9]
  Number of SAEs: 0
  Number of TEAEs: 6
  Number of TEAEs grade ≥ 3: 0
  Number of TEAEs leading to study drug discontinuation: 0
  Number of drug-related TEAEs: 1
[5]; [10]
  Number of TEAEs: 24
  Number of TEAEs grade ≥ 3: 5
  Number of TEAEs leading to study drug discontinuation: 0
[5]; SCD N=6, single dose and multiple dose portions (Table 13A), 1 grade 2 headache, 2 grade 1 diarrhea
  Number of drug-related TEAEs: 3^a
[5]; SCD N=6, single dose and multiple dose portions (Table 13A), SAEs were grade 3 VOCs
  Number of SAEs: 2^b
[5]; SCD cohort, single dose portion and multiple ascending dose phases
  safety and tolerability: safe and well tolerated
[5]; [11]
  Number of SAEs: 3
  Number of TEAEs: 33
  Number of TEAEs grade ≥ 3: 7
  Number of TEAEs leading to study drug discontinuation: 0
  Number of drug-related TEAEs: 4
[5]; adults with SCD, daily maintenance doses of 150 mg
  tolerability: well tolerated
